Experimental data: paper PMC5704959 (ACS chemical biology, 2016)

Molecular target: human Siglec-9 (hSiglec-9-Fc, hSiglec-9) (Homo sapiens, UniProt Q9Y336)
Experiment: glycan microarray, fluorescence
Assay type: binding
Settings: glycan immobilised on epoxide slide; PBS pH 7.4, RT, 2 h

Sequence of human Siglec-9 (hSiglec-9-Fc, hSiglec-9) (Q9Y336 18-348 limits assumed): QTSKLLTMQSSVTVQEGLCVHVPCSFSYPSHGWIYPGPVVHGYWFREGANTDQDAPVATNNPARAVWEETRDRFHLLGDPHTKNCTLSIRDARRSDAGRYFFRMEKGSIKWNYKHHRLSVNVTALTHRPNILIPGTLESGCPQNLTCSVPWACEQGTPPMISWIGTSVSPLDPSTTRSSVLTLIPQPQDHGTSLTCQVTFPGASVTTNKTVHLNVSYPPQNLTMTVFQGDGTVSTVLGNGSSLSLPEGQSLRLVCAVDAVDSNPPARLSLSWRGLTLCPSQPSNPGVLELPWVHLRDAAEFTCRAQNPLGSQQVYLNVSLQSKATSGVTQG

Structure (SMILES) | glycan microarray, fluorescence (RFU)
CC(=O)N[C@H]1[C@H]([C@H](O)[C@H](O)COC(C)=O)O[C@@](O[C@H]2[C@@H](O)[C@@H](CO)O[C@@H](O[C@H]3[C@H](O)[C@@H](O)[C@H](OCCCN)O[C@@H]3CO)[C@@H]2O)(C(=O)O)C[C@@H]1O [Neu5,9Ac2α3Galβ4GlcβProNH2] | observable binding to both Neu5Ac9NAc (black column) and Neu5,9Ac2 (grey column)-containing glycans
CC(=O)N[C@H]1[C@H]([C@H](O)[C@H](O)CO)O[C@@](O[C@H]2[C@@H](O)[C@@H](CO)O[C@@H](O[C@H]3[C@H](O)[C@@H](O)[C@H](OCCCN)O[C@@H]3CO)[C@@H]2O)(C(=O)O)C[C@@H]1O [Neu5Acα3Galβ4GlcβProNH2] | hSiglec-9 prefers binding to Neu5Ac-glycan without 9-modification at sialic acid
